Laboratory results taken from ChEMBL document CHEMBL4507291 (2021).

Legend:
[1] = test system: Tyrosine-protein kinase ABL1 (Homo sapiens), P00519 [T315I]
[2] = target: Mitogen-activated protein kinase 7 (Homo sapiens) (UniProt Q13164)
[3] = target: Ribosomal protein S6 kinase alpha-1 (Homo sapiens) (UniProt Q15418)
[4] = target: T1, Dual specificity protein kinase TTK (Homo sapiens) (UniProt P33981)
T1 sequence (whole entry): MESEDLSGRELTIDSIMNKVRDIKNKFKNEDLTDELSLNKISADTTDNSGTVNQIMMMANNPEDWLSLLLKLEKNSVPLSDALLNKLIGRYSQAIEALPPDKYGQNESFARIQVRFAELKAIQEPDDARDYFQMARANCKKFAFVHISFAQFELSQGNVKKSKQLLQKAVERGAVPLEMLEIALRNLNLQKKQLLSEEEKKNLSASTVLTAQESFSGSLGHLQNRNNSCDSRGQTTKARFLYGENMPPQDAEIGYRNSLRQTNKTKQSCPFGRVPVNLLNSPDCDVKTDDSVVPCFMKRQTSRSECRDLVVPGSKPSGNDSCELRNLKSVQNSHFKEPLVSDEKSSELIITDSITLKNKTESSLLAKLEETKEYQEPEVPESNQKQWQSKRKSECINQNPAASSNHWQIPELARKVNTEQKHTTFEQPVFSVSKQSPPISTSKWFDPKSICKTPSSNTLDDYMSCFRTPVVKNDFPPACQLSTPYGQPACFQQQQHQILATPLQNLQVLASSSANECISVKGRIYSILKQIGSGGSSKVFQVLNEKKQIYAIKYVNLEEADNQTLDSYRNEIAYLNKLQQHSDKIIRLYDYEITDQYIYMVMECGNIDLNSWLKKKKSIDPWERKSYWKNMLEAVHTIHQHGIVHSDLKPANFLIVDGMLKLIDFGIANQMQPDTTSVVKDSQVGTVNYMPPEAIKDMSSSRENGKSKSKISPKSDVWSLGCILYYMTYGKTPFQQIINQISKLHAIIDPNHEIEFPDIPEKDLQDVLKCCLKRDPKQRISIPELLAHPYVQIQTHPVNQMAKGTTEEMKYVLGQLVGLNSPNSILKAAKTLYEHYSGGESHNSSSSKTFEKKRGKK

[5] = target: Homeodomain-interacting protein kinase 3 (Homo sapiens) (UniProt Q9H422)
Chain of Homeodomain-interacting protein kinase 3 (Homo sapiens) (Q9H422 whole entry, looked up): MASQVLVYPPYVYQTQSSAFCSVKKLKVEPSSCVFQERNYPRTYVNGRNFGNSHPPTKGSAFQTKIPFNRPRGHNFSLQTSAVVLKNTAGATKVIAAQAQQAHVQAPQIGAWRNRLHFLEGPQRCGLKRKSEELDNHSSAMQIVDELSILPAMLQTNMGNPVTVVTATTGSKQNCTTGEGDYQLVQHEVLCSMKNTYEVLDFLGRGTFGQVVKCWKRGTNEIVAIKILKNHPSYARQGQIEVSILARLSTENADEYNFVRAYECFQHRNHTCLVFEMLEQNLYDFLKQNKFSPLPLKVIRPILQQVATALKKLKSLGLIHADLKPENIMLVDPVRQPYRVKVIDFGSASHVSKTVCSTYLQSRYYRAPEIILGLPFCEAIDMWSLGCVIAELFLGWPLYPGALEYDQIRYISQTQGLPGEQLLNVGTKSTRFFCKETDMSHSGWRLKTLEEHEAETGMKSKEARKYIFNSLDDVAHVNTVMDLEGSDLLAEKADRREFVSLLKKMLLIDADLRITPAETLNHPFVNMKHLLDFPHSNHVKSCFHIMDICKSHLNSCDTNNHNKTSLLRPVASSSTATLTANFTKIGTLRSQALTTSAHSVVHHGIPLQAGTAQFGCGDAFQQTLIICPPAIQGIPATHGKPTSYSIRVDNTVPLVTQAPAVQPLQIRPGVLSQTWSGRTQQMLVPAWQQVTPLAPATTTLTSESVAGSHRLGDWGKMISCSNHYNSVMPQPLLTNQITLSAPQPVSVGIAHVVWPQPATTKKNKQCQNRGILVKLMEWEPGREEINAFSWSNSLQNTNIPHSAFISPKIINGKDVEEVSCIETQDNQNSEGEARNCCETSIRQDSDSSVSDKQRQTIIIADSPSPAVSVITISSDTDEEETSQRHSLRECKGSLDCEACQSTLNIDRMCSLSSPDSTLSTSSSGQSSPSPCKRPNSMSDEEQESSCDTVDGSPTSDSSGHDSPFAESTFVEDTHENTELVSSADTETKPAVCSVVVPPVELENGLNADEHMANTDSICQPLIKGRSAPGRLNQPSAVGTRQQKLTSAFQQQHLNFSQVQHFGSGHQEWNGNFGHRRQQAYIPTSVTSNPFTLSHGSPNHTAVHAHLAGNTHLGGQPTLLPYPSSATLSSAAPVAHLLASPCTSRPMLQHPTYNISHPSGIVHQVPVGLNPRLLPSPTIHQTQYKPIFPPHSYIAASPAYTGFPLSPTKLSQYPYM

[6] = target: Mitogen-activated protein kinase 3 (Homo sapiens) (UniProt P27361)
[7] = target: T2, Inhibitor of nuclear factor kappa-B kinase subunit beta (Homo sapiens) (UniProt O14920)
T2 sequence (whole entry): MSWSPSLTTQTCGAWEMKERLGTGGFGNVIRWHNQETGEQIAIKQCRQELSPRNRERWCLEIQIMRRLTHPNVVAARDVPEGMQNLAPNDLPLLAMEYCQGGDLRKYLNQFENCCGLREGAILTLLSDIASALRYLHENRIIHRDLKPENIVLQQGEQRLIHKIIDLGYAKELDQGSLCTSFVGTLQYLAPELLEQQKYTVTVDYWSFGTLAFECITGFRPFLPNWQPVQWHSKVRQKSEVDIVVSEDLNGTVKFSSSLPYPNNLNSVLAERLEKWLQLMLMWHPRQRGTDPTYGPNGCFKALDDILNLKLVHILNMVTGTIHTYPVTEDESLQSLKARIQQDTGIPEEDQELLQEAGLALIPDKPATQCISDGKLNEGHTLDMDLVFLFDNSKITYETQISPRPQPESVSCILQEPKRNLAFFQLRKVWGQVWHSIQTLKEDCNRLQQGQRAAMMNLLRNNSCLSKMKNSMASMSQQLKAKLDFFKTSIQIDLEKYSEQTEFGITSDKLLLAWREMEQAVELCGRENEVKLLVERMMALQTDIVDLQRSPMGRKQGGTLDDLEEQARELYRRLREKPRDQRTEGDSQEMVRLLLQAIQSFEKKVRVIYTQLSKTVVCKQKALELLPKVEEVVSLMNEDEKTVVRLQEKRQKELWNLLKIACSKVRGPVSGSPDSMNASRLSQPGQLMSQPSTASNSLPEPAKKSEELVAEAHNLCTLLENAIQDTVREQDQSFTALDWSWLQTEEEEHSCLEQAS

[8] = target: T3, Mitogen-activated protein kinase 13 (Homo sapiens) (UniProt O15264)
T3 sequence (whole entry): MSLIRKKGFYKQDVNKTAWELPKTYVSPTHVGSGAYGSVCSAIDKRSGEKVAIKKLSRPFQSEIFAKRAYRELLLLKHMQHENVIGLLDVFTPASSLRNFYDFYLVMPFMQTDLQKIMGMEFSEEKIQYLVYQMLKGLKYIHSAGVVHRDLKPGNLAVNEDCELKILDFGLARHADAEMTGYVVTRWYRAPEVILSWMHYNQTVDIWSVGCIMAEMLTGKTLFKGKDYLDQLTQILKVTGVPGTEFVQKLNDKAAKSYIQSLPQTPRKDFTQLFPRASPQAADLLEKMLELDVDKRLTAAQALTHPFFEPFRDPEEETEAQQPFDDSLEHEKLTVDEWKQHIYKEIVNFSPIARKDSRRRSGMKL

[9] = target: Ephrin type-A receptor 2 (Homo sapiens) (UniProt P29317)
Chain of Ephrin type-A receptor 2 (Homo sapiens) (P29317 whole entry): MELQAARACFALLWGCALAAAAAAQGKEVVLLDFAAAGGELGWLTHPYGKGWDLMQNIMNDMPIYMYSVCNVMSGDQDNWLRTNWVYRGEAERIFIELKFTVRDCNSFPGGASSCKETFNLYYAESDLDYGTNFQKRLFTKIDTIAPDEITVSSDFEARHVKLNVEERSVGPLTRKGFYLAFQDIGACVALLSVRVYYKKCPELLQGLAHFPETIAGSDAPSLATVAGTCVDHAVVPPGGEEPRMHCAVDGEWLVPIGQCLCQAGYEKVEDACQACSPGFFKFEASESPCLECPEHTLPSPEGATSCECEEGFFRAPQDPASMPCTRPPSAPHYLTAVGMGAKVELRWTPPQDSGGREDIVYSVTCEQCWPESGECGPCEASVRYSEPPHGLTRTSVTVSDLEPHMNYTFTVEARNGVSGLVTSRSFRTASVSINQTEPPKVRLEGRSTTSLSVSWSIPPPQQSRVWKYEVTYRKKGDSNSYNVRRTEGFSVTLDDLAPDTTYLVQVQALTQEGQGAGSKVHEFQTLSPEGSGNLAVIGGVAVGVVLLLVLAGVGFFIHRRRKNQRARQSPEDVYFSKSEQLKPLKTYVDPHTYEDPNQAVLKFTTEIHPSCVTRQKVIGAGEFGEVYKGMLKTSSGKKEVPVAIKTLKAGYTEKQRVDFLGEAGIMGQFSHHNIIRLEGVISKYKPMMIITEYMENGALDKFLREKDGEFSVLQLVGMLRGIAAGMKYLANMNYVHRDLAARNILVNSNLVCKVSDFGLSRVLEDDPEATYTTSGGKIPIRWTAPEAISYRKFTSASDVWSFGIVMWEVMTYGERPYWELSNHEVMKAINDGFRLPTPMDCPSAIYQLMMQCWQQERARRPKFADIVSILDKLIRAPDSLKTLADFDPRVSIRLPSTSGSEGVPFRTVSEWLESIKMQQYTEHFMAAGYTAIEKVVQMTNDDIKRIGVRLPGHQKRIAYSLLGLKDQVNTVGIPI

[10] = target: TRAF2 and NCK-interacting protein kinase (Homo sapiens) (UniProt Q9UKE5)
Chain of TRAF2 and NCK-interacting protein kinase (Homo sapiens) (Q9UKE5 whole entry, looked up): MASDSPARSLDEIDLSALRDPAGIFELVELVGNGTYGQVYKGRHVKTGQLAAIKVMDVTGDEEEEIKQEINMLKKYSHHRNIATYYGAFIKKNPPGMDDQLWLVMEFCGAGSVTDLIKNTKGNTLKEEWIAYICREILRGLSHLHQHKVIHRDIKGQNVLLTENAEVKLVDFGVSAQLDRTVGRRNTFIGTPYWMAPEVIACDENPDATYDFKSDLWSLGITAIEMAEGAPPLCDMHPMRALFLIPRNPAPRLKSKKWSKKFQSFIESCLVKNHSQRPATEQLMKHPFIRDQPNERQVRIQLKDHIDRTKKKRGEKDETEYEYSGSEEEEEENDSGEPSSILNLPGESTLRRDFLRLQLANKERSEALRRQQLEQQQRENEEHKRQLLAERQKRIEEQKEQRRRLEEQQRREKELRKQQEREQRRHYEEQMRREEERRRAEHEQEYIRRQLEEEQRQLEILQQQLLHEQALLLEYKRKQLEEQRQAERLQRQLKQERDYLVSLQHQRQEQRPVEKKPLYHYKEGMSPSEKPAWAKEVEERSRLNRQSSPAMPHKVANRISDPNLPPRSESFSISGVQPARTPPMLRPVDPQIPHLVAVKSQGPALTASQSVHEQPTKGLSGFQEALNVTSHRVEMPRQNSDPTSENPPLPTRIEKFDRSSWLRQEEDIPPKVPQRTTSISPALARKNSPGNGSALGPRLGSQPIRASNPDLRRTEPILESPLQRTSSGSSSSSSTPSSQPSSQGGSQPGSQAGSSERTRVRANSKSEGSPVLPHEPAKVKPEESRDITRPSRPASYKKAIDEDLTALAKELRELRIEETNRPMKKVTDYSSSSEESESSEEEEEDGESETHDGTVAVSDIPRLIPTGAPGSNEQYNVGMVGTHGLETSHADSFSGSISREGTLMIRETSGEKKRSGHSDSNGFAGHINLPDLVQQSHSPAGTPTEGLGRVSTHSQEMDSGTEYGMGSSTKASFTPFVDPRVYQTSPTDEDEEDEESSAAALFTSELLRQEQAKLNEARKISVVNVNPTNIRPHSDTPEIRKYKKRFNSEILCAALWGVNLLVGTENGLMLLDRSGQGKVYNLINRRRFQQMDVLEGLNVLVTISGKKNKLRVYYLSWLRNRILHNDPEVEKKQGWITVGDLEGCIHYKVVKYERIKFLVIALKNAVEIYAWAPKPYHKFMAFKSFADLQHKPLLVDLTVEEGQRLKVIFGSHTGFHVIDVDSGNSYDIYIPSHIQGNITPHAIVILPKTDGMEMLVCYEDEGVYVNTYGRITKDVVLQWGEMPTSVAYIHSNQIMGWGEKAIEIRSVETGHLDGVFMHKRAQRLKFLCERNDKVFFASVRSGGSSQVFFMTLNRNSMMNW

[11] = Compound concentration 100.0 nM
[12] = Compound concentration 1000.0 nM

Measured: residual activity

Chain of Mitogen-activated protein kinase 7 (Homo sapiens) (Q13164 2-816 limits assumed): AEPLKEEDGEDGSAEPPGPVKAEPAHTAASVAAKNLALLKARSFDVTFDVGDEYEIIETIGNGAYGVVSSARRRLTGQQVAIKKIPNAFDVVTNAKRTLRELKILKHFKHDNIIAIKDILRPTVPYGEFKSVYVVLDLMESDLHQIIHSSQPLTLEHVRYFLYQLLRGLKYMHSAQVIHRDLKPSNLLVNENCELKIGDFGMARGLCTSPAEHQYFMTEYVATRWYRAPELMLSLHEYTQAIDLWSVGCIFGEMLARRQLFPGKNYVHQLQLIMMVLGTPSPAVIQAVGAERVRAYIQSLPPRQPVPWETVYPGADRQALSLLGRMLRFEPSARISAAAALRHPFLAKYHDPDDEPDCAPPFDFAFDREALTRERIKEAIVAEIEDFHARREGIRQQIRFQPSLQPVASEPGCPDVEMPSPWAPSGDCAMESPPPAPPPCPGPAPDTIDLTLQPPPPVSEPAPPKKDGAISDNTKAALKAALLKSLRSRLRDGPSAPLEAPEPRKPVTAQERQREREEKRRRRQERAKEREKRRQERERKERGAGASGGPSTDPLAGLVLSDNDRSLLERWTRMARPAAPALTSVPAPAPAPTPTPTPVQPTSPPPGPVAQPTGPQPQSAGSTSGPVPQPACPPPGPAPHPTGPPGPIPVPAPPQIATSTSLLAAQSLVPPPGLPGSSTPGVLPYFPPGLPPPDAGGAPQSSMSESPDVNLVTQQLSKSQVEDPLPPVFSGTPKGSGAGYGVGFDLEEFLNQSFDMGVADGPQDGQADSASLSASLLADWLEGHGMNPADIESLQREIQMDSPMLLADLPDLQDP
Chain of Ribosomal protein S6 kinase alpha-1 (Homo sapiens) (Q15418 whole entry): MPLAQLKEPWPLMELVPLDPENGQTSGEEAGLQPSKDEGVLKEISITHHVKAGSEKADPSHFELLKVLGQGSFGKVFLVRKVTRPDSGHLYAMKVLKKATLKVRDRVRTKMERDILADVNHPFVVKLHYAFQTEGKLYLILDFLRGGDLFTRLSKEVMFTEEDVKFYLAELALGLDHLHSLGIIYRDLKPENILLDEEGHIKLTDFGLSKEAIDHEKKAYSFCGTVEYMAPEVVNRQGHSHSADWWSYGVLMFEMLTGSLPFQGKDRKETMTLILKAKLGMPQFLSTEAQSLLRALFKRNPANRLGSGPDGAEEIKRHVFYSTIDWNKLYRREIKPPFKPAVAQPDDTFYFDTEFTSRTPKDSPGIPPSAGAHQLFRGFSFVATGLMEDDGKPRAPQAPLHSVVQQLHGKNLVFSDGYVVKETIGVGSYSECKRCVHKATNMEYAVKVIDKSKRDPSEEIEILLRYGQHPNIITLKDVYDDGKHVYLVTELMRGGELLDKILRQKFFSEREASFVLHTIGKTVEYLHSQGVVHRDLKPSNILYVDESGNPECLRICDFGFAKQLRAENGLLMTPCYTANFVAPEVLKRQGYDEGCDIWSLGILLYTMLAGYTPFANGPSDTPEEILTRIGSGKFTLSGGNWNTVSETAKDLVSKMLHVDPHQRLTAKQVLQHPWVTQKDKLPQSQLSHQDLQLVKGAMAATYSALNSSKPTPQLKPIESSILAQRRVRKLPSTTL

C[C@@H]1CN(c2cc(-c3n[nH]c4ccc(OC5(C)CC5)cc34)ncn2)C[C@H](C)O1 [MLi-2]
inactive: [1]; [11] 72% | [2]; [11] 92% | [3]; [11] 93% | [4]; [11] 74% | [5]; [11] 73% | [6]; [11] 87% | [7]; [11] 84% | [8]; [11] 96% | [9]; [11] 72% | [10]; [11] 100%

C[C@@H]1CN(c2cc(-c3nn(C)c4ccc(OC5(C)CC5)cc34)ncn2)C[C@H](C)O1 [MLi-2-NC]
inactive: [1]; [12] 73% | [2]; [12] 76% | [3]; [12] 100% | [4]; [12] 100% | [5]; [12] 91% | [6]; [12] 100% | [7]; [12] 76% | [8]; [12] 100% | [9]; [12] 100% | [10]; [12] 80%
